Measurements taken from ChEMBL document CHEMBL1126278, “New neplanocin analogues. 1. Synthesis of 6'-modified neplanocin A derivatives as broad-spectrum antiviral agents” (J Med Chem, 1992).
Converted amounts (≈) assume the structure as drawn.

Assays:
HEL [1] = assay: Inhibitory effect on replication of DNA virus CMV (AD-169) on HEL cell line.; format: functional, cell-based; conditions: Homo sapiens
HEL [2] = assay: Inhibitory effect on replication of DNA virus CMV (Davis) on HEL cell line.; format: functional, cell-based; conditions: Homo sapiens
HeLa [3] = assay: Inhibitory effect on replication of RNA virus coxsB-4 in HeLa cell line.; format: functional, cell-based; conditions: Homo sapiens
HeLa [4] = assay: Inhibitory effect on replication of RNA virus RSV in HeLa cell line; format: functional, cell-based; conditions: Homo sapiens
HeLa [5] = assay: Inhibitory effect on replication of RNA virus VSV in HeLa cell line.; format: functional, cell-based; conditions: Homo sapiens
HeLa [6] = assay: Inhibitory effect on replication of RNA virus cell morphology in HeLa cell line.; format: functional, cell-based; conditions: Homo sapiens
MDCK [7] = assay: Inhibitory effect on replication of RNA virus cell morphology in MDCK cell line.; format: functional, cell-based; conditions: Canis lupus familiaris
MT4 [8] = assay: Inhibitory effect on replication of DNA virus RNA virus HIV-1 in MT-4 cell line.; format: functional, cell-based; conditions: Homo sapiens
MT4 [9] = assay: Inhibitory effect on replication of DNA virus RNA virus HIV-2 in MT-4 cell line.; format: functional, cell-based; conditions: Homo sapiens
MT4 [10] = assay: Inhibitory effect on replication of RNA virus cell growth in MT-4 cell line.; format: functional, cell-based; conditions: Homo sapiens
PRK [11] = assay: Inhibitory effect on replication of DNA virus Cell morphology on PRK cell line; format: functional, cell-based; conditions: Oryctolagus cuniculus
PRK [12] = assay: Inhibitory effect on replication of DNA virus VV on PRK cell line.; format: functional, cell-based; conditions: Oryctolagus cuniculus
[13] = Inhibitory effect on replication of DNA virus HSV-1 (KOS) in PRK cell line.; format: functional, cell-based; conditions: Oryctolagus cuniculus
[14] = Inhibitory effect on replication of DNA virus HSV-2 (G) in PRK cell line.; format: functional, cell-based; conditions: Oryctolagus cuniculus
PRK [15] = assay: Inhibitory effect on replication of RNA virus VSV in PRK cell line.; format: functional, cell-based; conditions: Oryctolagus cuniculus
PRK [16] = assay: Inhibitory effect on replication of RNA virus cell morphology in PRK cell line.; format: functional, cell-based; conditions: Oryctolagus cuniculus
Vero [17] = assay: Inhibitory effect on replication of RNA virus coxsB-4 in Vero cell line; format: functional, cell-based; conditions: Chlorocebus sabaeus
Vero [18] = assay: Inhibitory effect on replication of RNA virus measles on Vero cell line.; format: functional, cell-based; conditions: Chlorocebus sabaeus
Vero [19] = assay: Inhibitory effect on replication of RNA virus reo-1 in Vero cell line.; format: functional, cell-based; conditions: Chlorocebus sabaeus
Vero [20] = assay: Inhibitory effect on replication of RNA virus JV in Vero cell line.; format: functional, cell-based; conditions: Chlorocebus sabaeus
Vero [21] = assay: Inhibitory effect on replication of RNA virus SFV in Vero cell line; format: functional, cell-based; conditions: Chlorocebus sabaeus
Vero [22] = assay: Inhibitory effect on replication of RNA virus SV in Vero cell line.; format: functional, cell-based; conditions: Chlorocebus sabaeus
Vero [23] = assay: Inhibitory effect on replication of RNA virus TV in Vero cell line.; format: functional, cell-based; conditions: Chlorocebus sabaeus
Vero [24] = assay: Inhibitory effect on replication of RNA virus RNA synthesis in Vero cell line.; format: functional, cell-based; conditions: Chlorocebus sabaeus
Vero [25] = assay: Inhibitory effect on replication of RNA virus cell morphology in Vero cell line.; format: functional, cell-based; conditions: Chlorocebus sabaeus
Vero [26] = assay: Inhibitory effect on replication of RNA virus protein synthesis in Vero cell line.; format: functional, cell-based; conditions: Chlorocebus sabaeus
Vero [27] = assay: Inhibitory effect on replication of RNA virus PV-3 in Vero cell line.; format: functional, cell-based; conditions: Chlorocebus sabaeus
HeLa [28] = assay: cells; conditions: Homo sapiens
MDCK [29] = assay: cells; conditions: Canis lupus familiaris
MDCK [30] = assay: cells; conditions: Canis lupus familiaris; remark: listed apart in the source
HEL [31] = assay: Inhibitory effect on replication of DNA virus Cell growth on HEL cell line.; format: functional, cell-based; conditions: Homo sapiens
HEL [32] = assay: Inhibitory effect on replication of DNA virus TK-VZV (07-1) on HEL cell line.; format: functional, cell-based; conditions: Homo sapiens
HEL [33] = assay: Inhibitory effect on replication of DNA virus TK-VZV (YSR) on HEL cell line.; format: functional, cell-based; conditions: Homo sapiens
HEL [34] = assay: Inhibitory effect on replication of DNA virus VZV (Oka) on HEL cell line.; format: functional, cell-based; conditions: Homo sapiens
HEL [35] = assay: Inhibitory effect on replication of DNA virus VZV (YS) on HEL cell line.; format: functional, cell-based; conditions: Homo sapiens
MT4 [36] = assay: Inhibitory effect on replication of RNA virus HIV-1 in MT-4 cell line.; format: functional, cell-based; conditions: Homo sapiens
MT4 [37] = assay: Inhibitory effect on replication of RNA virus HIV-2 in MT-4 cell line.; format: functional, cell-based; conditions: Homo sapiens

C=CC1=C[C@@H](n2cnc3c(N)ncnc32)[C@H](O)[C@@H]1O
IC50 (HEL [1]): 18 µg/mL (≈ 69.4 µM) | IC50 (HEL [2]): 17 µg/mL (≈ 65.6 µM) | IC50 (HeLa [3]): > 400 µg/mL | IC50 (HeLa [4]): 100 µg/mL (≈ 386 µM) | IC50 (HeLa [5]): 300 µg/mL (≈ 1160 µM) | IC50 (HeLa [6]): > 400 µg/mL | IC50 (MDCK [7]): > 100 µg/mL | IC50 (MT4 [8]): > 8 µg/mL | IC50 (MT4 [9]): > 8 µg/mL | IC50 (MT4 [10]): 6 µg/mL (≈ 23.1 µM) | IC50 (PRK [11]): > 400 µg/mL | IC50 (PRK [12]): 20 µg/mL (≈ 77.1 µM) | IC50 [13]: > 200 µg/mL | IC50 [14]: > 200 µg/mL | IC50 (PRK [15]): 20 µg/mL (≈ 77.1 µM) | IC50 (PRK [16]): > 400 µg/mL | IC50 (Vero [17]): > 200 µg/mL | IC50 (Vero [18]): 40 µg/mL (≈ 154 µM) | IC50 (Vero [19]): 70 µg/mL (≈ 270 µM) | IC50 (Vero [20]): 8 µg/mL (≈ 30.9 µM) | IC50 (Vero [21]): > 200 µg/mL | IC50 (Vero [22]): > 200 µg/mL | IC50 (Vero [23]): 10 µg/mL (≈ 38.6 µM) | IC50 (Vero [24]): 14 µg/mL (≈ 54 µM) | IC50 (Vero [25]): 400 µg/mL (≈ 1540 µM) | IC50 (Vero [26]): 47 µg/mL (≈ 181 µM) | IC50 (Vero [27]): 40 µg/mL (≈ 154 µM) | IC50 (HeLa [28]): > 400 µg/mL | IC50 (MDCK [29]): > 100 µg/mL | IC50 (MDCK [30]): > 100 µg/mL

COCC1=C[C@@H](n2cnc3c(N)ncnc32)[C@H](O)[C@@H]1O
IC50 (HEL [1]): 40 µg/mL (≈ 144 µM) | IC50 (HEL [2]): 25 µg/mL (≈ 90.2 µM) | IC50 (HEL [31]): 200 µg/mL (≈ 721 µM) | IC50 (HEL [32]): 100 µg/mL (≈ 361 µM) | IC50 (HEL [33]): 60 µg/mL (≈ 216 µM) | IC50 (HEL [34]): 200 µg/mL (≈ 721 µM) | IC50 (HEL [35]): 300 µg/mL (≈ 1080 µM) | IC50 (HeLa [3]): > 200 µg/mL | IC50 (HeLa [4]): 100 µg/mL (≈ 361 µM) | IC50 (HeLa [5]): 150 µg/mL (≈ 541 µM) | IC50 (HeLa [6]): > 400 µg/mL | IC50 (MDCK [7]): > 100 µg/mL | IC50 (MT4 [36]): > 40 µg/mL | IC50 (MT4 [37]): > 40 µg/mL | IC50 (MT4 [10]): 45 µg/mL (≈ 162 µM) | IC50 (PRK [11]): > 400 µg/mL | IC50 (PRK [12]): 20 µg/mL (≈ 72.1 µM) | IC50 [13]: > 400 µg/mL | IC50 [14]: > 400 µg/mL | IC50 (PRK [15]): 20 µg/mL (≈ 72.1 µM) | IC50 (PRK [16]): > 400 µg/mL | IC50 (Vero [17]): > 400 µg/mL | IC50 (Vero [18]): 40 µg/mL (≈ 144 µM) | IC50 (Vero [19]): 10 µg/mL (≈ 36.1 µM) | IC50 (Vero [20]): 20 µg/mL (≈ 72.1 µM) | IC50 (Vero [21]): > 400 µg/mL | IC50 (Vero [22]): 70 µg/mL (≈ 252 µM) | IC50 (Vero [23]): 20 µg/mL (≈ 72.1 µM) | IC50 (Vero [25]): 400 µg/mL (≈ 1440 µM) | IC50 (Vero [27]): 70 µg/mL (≈ 252 µM) | IC50 (HeLa [28]): > 200 µg/mL | IC50 (MDCK [29]): > 100 µg/mL | IC50 (MDCK [30]): > 100 µg/mL
